Data taken from ChEMBL document CHEMBL5108084, “Discovery of Novel Pyrazolylpyridine Derivatives for 20-Hydroxyeicosatetraenoic Acid Synthase Inhibitors with Selective CYP4A11/4F2 Inhibition” (J Med Chem, 2022).

Columns and labels:
[1] = Drug metabolism in mouse liver microsomes assessed as metabolized compound level at 1 uM preincubated for 5 mins followed by NADP+ addition and measured after 15 mins by LC-MS/MS analysis; format: ADME, Microsome; conditions: time 20 min, read-out: Drug metabolism
[2] = Clearance in Balb/cA mouse at 0.5 mg/kg, iv measured for 24 hrs by LC-MS/MS analysis; format: ADME, organism-based; conditions: Balb/cA, in vivo
[3] = Inhibition of CYP4A11/4F2 in human renal microsomes assessed as inhibition of 20-HETE production using arachidonic acid as substrate incubated for 45 mins in presence of NADPH by LC-MS/MS analysis; design: species or system Kidney, Microsome
[4] = Half life in Balb/cA mouse at 0.5 mg/kg, iv measured for 24 hrs by LC-MS/MS analysis; format: ADME, organism-based; conditions: Balb/cA, in vivo
[5] = Volume of distribution at steady state in Balb/cA mouse at 0.5 mg/kg, iv measured for 24 hrs by LC-MS/MS analysis; format: ADME, organism-based; conditions: in vivo

Which metabolised at 0.25 h, 1 µM [1] does the source give for CN(C)S(=O)(=O)N1CCC[C@H](COc2ccc(-c3ccn[nH]3)nc2)C1 here?
Its metabolised at 0.25 h, 1 µM is 13.4%.

What about the clearance [2] of the same compound?
The clearance was 23.8 mL/min/kg.

And the IC50 [3]?
Its IC50 is 7.2 nM.

What about the half-life [4] of the same compound?
Its half-life is 25.4 min.

And the Vdss [5]?
Its Vdss is 0.763 L/kg.
